system: Mo7e cells which endogenously express c-kit; assay: Mo7e assay: inhibition of SCF dependent proliferation (MTT); assay type: cell-based; settings: Table 1; SCF stimulated Mo7e cells, 48 hours, MTT
Protocol: The compounds described herein are tested for inhibition of SCF dependent proliferation using Mo7e cells which endogenously express c-kit in a 96 well format. Two-fold serially diluted test compounds (Cmax=10 μM) are evaluated for their antiproliferative activity of Mo7e cells stimulated with human recombinant SCF. After 48 hours of incubation at 37° C., cell viability is measured by using a MTT colorimetric assay from Promega. IC50 values for compounds of the invention are quoted in table 1, supra.

| SMILES | IC50 |
| --- | --- |
| Cc1cc2c(cn1)cc(-c1cc(Nc3noc(C4CCCC4)n3)ccc1C)c(=O)n2C [Compound A15, 3-{5-[(5-cyclopentyl-1,2,4-oxadiazol-3-yl)amino]-2-methylphenyl}-1,7-dimethyl-1,2-dihydro-1,6-naphthyridin-2-one] | 28 nM |
| CCCc1nc(Nc2ccc(C)c(-c3cc4cnc(C)cc4n(C)c3=O)c2)no1 [Compound A28, 1,7-dimethyl-3-{2-methyl-5-[(5-propyl-1,2,4-oxadiazol-3-yl)amino]phenyl}-1,2-dihydro-1,6-naphthyridin-2-one] | 50 nM |
| Cc1cc2c(cn1)cc(-c1cc(Nc3noc(-c4nccs4)n3)ccc1C)c(=O)n2C [Compound A9, 1,7-dimethyl-3-(2-methyl-5-(5-(thiazol-2-yl)-1,2,4-oxadiazol-3-ylamino)phenyl)-1,6-naphthyridin-2(1H)-one] | 204 nM |
| Cc1cc2c(cn1)cc(-c1cc(Nc3noc(C4CCCCC4)n3)ccc1C)c(=O)n2C [Compound A18, 3-{5-[(5-cyclohexyl-1,2,4-oxadiazol-3-yl)amino]-2-methylphenyl}-1,7-dimethyl-1,2-dihydro-1,6-naphthyridin-2-one] | 179 nM |
| Cc1cc2c(cn1)cc(-c1cc(Nc3noc(-c4cccc(Cl)n4)n3)ccc1C)c(=O)n2C [Compound A49, 3-(5-{[5-(6-chloropyridin-2-yl)-1,2,4-oxadiazol-3-yl]amino}-2-methylphenyl)-1,7-dimethyl-1,2-dihydro-1,6-naphthyridin-2-one] | 333 nM |
| Cc1cc2c(cn1)cc(-c1cc(Nc3noc(-c4csc(-c5cccnc5)n4)n3)ccc1C)c(=O)n2C [Compound A44, 1,7-dimethyl-3-[2-methyl-5-({5-[2-(pyridin-3-yl)-1,3-thiazol-4-yl]-1,2,4-oxadiazol-3-yl}amino)phenyl]-1,2-dihydro-1,6-naphthyridin-2-one] | 456 nM |
| CC(=O)c1ccccc1-c1nc(Nc2ccc(C)c(-c3cc4cnc(C)cc4n(C)c3=O)c2)no1 [Compound A94, 3-(5-{[5-(2-acetylphenyl)-1,2,4-oxadiazol-3-yl]amino}-2-methylphenyl)-1,7-dimethyl-1,2-dihydro-1,6-naphthyridin-2-one] | 258 nM |
| Cc1cc2c(cn1)cc(-c1cc(Nc3noc([C@H]4CCCCO4)n3)ccc1C)c(=O)n2C [Compound A99, 1,7-dimethyl-3-[2-methyl-5-({5-[(2R)-oxan-2-yl]-1,2,4-oxadiazol-3-yl}amino)phenyl]-1,2-dihydro-1,6-naphthyridin-2-one] | 100 nM |
| COc1cc(C)ccc1-c1nc(Nc2ccc(C)c(-c3cc4cnc(C)cc4n(C)c3=O)c2)no1 [Compound A80, 3-(5-{[5-(2-methoxy-4-methylphenyl)-1,2,4-oxadiazol-3-yl]amino}-2-methylphenyl)-1,7-dimethyl-1,2-dihydro-1,6-naphthyridin-2-one] | 338 nM |
| Cc1cc2c(cn1)cc(-c1cc(Nc3noc(C4CCOCC4)n3)ccc1C)c(=O)n2C [Compound A33, 1,7-dimethyl-3-(2-methyl-5-{[5-(oxan-4-yl)-1,2,4-oxadiazol-3-yl]amino}phenyl)-1,2-dihydro-1,6-naphthyridin-2-one] | 444 nM |
| Cc1cc2c(cn1)cc(-c1cc(Nc3nnc(-c4ccc(Cl)cc4)o3)ccc1C)c(=O)n2C [Compound B3, 3-(5-{[5-(4-chlorophenyl)-1,3,4-oxadiazol-2-yl]amino}-2-methylphenyl)-1,7-dimethyl-1,2-dihydro-1,6-naphthyridin-2-one] | 88 nM |
| Cc1ccc(-c2nnc(Nc3ccc(C)c(-c4cc5cnc(C)cc5n(C)c4=O)c3)[nH]2)cc1 [Compound C4, 1,7-dimethyl-3-(2-methyl-5-{[5-(4-methylphenyl)-4H-1,2,4-triazol-3-yl]amino}phenyl)-1,2-dihydro-1,6-naphthyridin-2-one] | 288 nM |
| Cc1cc2c(cn1)cc(-c1cc(Nc3cc(C(C)C)on3)ccc1C)c(=O)n2C [Compound D14] | 144 nM |

— patent US8278452B2, “Heterocyclic compounds and compositions as c-kit and PDGFR kinase inhibitors” (IRM LLC, priority 2008, dated 2012)
